Values quoted from earlier work as cited in patent US20160045407A1, “DENTRIFICE WITH INCREMENTAL CHEMISTRIES” (The Procter & Gamble Company, priority 2014, published 2016).

Settings: concentration level where the cooling effect can be clearly recognized

Row | Structure (SMILES) | cooling threshold
1 | CC(C)[C@@H]1CC[C@@H](C)C[C@@H]1O [1-neomenthol] | about 3,000 ppb
2 | CC(C)[C@@H]1CC[C@@H](C)C[C@H]1O [L-menthol] | about 800 ppb
3 | CC(C)[C@@H]1CC[C@@H](C)C[C@@H]1O [d-neomenthol] | about 25,000 ppb
